Data published in patent US6682892B2, “Method for treating herpes viruses” (priority 2000, dated 2004).
Like-named read-outs stand apart in the source and are kept apart here.

Columns and labels:
Format in all cases: cell-based
HSV-1 KOS = assay: Plaque reduction assay, HSV-1 KOS
Protocol: (§1) Antiviral activity of compounds against herpesviruses such as HSV-1, HSV-2, or HCMV can be measured using plaque reduction assays. 0.1 ml of media containing approximately 50 PFU of virus is added to each well of a 24-well cell culture dish containing a confluent monolayer of cells (Vero cells for HSV-1 and HSV-2, HFF cells for HCMV). Compounds are dissolved in 100% DMSO and diluted in 100% DMSO as 200× stocks of the desired final drug concentration. Typically 5-6 two-fold dilutions are prepared for each compound. Dilutions of compounds are then added to media containing 0.8% CMC resulting in a final 1× drug concentration. After the virus-infected cells have incubated for 1 h at 37° C., the virus innoculum is removed and 1 ml of media containing 0.8% CMC and the various concentrations of compound is added to each well of the dish. The dish is incubated at 37° C. for approximately 2-3 days (HSV-1 and HSV-2) or 6-9 days (HCMV) to allow sufficient growth of virus to form plaques in the cell monolayer. Plaques can be observed and counted microscopically or by staining the cells with 0.1% crystal violet in 20% ethanol. […] Antiviral activity of a compound is expressed as the concentration of compound predicted to reduce the number of plaques in a well by 50% (IC50). The IC50 values are calculated by plotting the per cent inhibition vs. concentration of compound using EXCEL software for linear regression.
(§2) A panel of viruses consisting of four strains of HSV-1 (KOS, F, DJL, Patton) and three strains of HSV-2 (MS, 35D, 186) are tested in a plaque reduction assay against four different 4-oxo-DHQ compounds (#1, 2, 4, 5 as shown in FIG. 1), and one 4-oxo-DHTP compound (#3 as shown in FIG. 1) and against Acyclovir. The six drugs inhibited replication of the seven virus strains with IC50 values ranging from 2-10 μM (Table 1). In order to select for 4-oxo-DHQ resistant mutants, HSV-1 strains KOS, F, and DJL along with HSV-2 strains 186 and MS are serially passaged in the presence of 20 uM compound 1. Following the seventh passage, 4-oxo-DHQ resistant virus from each strain are plaque purified three times and high-titer stocks are made.

HSV-2 MS = assay: Plaque reduction assay, HSV-2 MS
Protocol: as §1, §2

HSV-1 KOS-M1 (V823A) = assay: Plaque reduction assay, 4-oxo-DHQ resistant HSV-1 KOS-M1
Protocol: as §1
(§3) Vero cells are plated out at a density of 3.5×10^5 cells per well in a six well tissue culture plate. Cells are infected with HSV-1 KOS at a multiplicity of infection (moi) of 0.1 pfu/cell and 1 h post infection the cells are overlayed with 3 ml media containing 20 uM of a 4-oxo-DHQ. Cultures are incubated for 20 h at 37° C., freeze/thawed to release cell-associated virus, and 0.1 ml of culture is used to infect a new monolayer of Vero cells (one passage). Serial passage is repeated seven times in the presence of 20 uM drug. Virus isolates are then plaque purified three times prior to preparation of stocks. 4-oxo-DHQ resistant HSV-1 and HSV-2 may also be selected by the marker transfer method described below using wild-type HSV DNA and the corresponding mutant HSV polymerase gene.
as §2

HSV-2 MS-M1 (V826A) = assay: Plaque reduction assay, 4-oxo-DHQ resistant HSV-2 MS-M1
Protocol: as §1, §3, §2

HCMV AD169 = assay: Plaque reduction assay, HCMV AD169
Protocol: as §1

[1] = test system: HCMV AD169-M1 (V823A, V824L); assay: Plaque reduction assay, 4-oxo-DHQ resistant HCMV AD169-M1
Protocol: as §1
A plasmid containing the wild-type HCMV polymerase gene is modified to contain the V823A or V823A and V824L mutations using a site-directed mutagenesis Kit (Stratagene Corp.) and following the manufactures's protocol. HFF cells are plated into T25 tissue culture flasks to achieve 80% confluency at the time of the transfection. Wild type HCMV AD 169 DNA and plasmid DNA containing the mutant HCMV polymerase gene are mixed at a ratio of 1:2 (2 ug of viral DNA to 4 ug of plasmid DNA). DNA's are transfected using superfect transfection reagent according to methods recommended by the manufacturer (Quiagen Inc.). Cells are harvested five days posttransfection, freeze-thawed to release virus and half of the sample is used to infect HFF cell monolayers. Cells are overlayed with media containing 20 uM 4-oxo-DHQ compound 2 (see FIG. 1). Serial passage is repeated seven times in the presence of 20 uM compound 2 and virus isolates are then plaque purified three times prior to preparation of viral stock.
In order to isolate an HCMV resistant mutant marker rescue experiments are done. Plasmids containing the mutant polymerase genes are transfected into HFF cells along with wild type HCMV AD169 DNA. The resulting virus is then serially passaged in the presence of 20 uM compound 1 (see FIG. 1). A 4-oxo-DHQ resistant virus is isolated from marker rescue studies done with the HCMV polymerase gene containing mutations that result in the V823A, V824L amino acid changes, but not with the gene containing V823A change alone.

HSV-1 F = assay: Plaque reduction assay, HSV-1 F; conditions: Table 1, plaque reduction, Vero cells
Protocol: as §1, §2

HSV-1 DJL = assay: Plaque reduction assay, HSV-1 DJL; conditions: Table 1, plaque reduction, Vero cells
Protocol: as §1, §2

HSV-1 Patton = assay: Plaque reduction assay, HSV-1 Patton; conditions: Table 1, plaque reduction, Vero cells
Protocol: as §1, §2

HSV-2 35D = assay: Plaque reduction assay, HSV-2 35D; conditions: Table 1, plaque reduction, Vero cells
Protocol: as §1, §2

HSV-2 186 = assay: Plaque reduction assay, HSV-2 186; conditions: Table 1, plaque reduction, Vero cells
Protocol: as §1, §2

[2] = Table 5, wild type strain, read-out: Plaque Reduction Assay - IC50 (μM) HSV-1 KOS
[3] = Table 5, wild type strain, read-out: Plaque Reduction Assay - IC50 (μM) HSV-2 MS
[4] = Table 5, mutant selected for 4-oxo-DHQ resistance, read-out: Plaque Reduction Assay - IC50 (μM) HSV-1 KOS-M1
[5] = Table 5, mutant selected for 4-oxo-DHQ resistance, read-out: Plaque Reduction Assay - IC50 (μM) HSV-2 MS-M1
[6] = Table 5, wild type strain, read-out: Plaque Reduction Assay - IC50 (μM) HCMV AD169
[7] = Table 5, mutant selected for 4-oxo-DHQ resistance, read-out: Plaque Reduction Assay - IC50 (μM) HCMV AD169-M1
[8] = Table 1, plaque reduction, Vero cells, read-out: IC50 (uM), HSV-1 KOS
[9] = Table 1, plaque reduction, Vero cells, read-out: IC50 (uM), HSV-2 MS
[10] = Human betaherpesvirus 5, AD169, Table 4, plaque reduction, wild type, read-out: HCMV AD169 IC50
[11] = Human betaherpesvirus 5, AD169, Table 5, wild type strain, read-out: Plaque Reduction Assay - IC50 (μM) HCMV AD169
[12] = Human betaherpesvirus 5, AD169, read-out: HCMV AD169 - M1 IC50 (μM)

| Structure (SMILES) | IC50 (HSV-1 KOS; [2]) [µM] | IC50 (HSV-2 MS; [3]) [µM] | IC50 (HSV-1 KOS-M1 (V823A); [4]) [µM] | IC50 (HSV-2 MS-M1 (V826A); [5]) [µM] | IC50 (HCMV AD169; [6]) [µM] | IC50 [1, 7] [µM] | further results |
| --- | --- | --- | --- | --- | --- | --- | --- |
| Cc1cn([C@@H]2O[C@H](CO)[C@@H](O)[C@@H]2O)c(=O)[nH]c1=O [AraT, Arabinosylthymine, reference compound] | 11.6 | 6.6 | 3.6 | 3.6 | – | – | – |
| O=C(NCc1ccc(Cl)cc1)c1cn(C2COC2)c2ccc(CN3CCOCC3)cc2c1=O [Compound 11] | 3.1 | 3 | > 50 | > 50 | 0.7 | 3.9 | – |
| CN(Cc1cc2c(=O)c(C(=O)NCc3ccc(Cl)cc3)cn(C)c2s1)CC(O)c1ccccc1 (racemic) [Compound 8] | 5.1 | 2.3 | > 50 | > 50 | < 0.1 | 1.1 | – |
| Cn1cc(C(=O)NCc2ccc(Cl)cc2)c(=O)c2cc(CN3CCOCC3)ccc21 [Compound 2] | 3.3 | 1.3 | > 50 | > 50 | 0.4 | 4 | IC50 (HSV-1 KOS; [8]): 3.8 µM; IC50 (HSV-1 F): 2.3 µM; IC50 (HSV-1 DJL): 2.6 µM; IC50 (HSV-1 Patton): 5.3 µM; IC50 (HSV-2 MS; [9]): 2.5 µM; IC50 (HSV-2 35D): 5.4 µM; IC50 (HSV-2 186): 2.3 µM |
| Cn1cc(C(=O)NCc2ccc(Cl)cc2)c(=O)c2cc(CN3CCOCC3)cc(C#CCO)c21 [Compound 12] | 1.3 | 0.4 | > 50 | 12.5 | 0.2 | 1.1 | – |
| O=C(NCc1ccc(Cl)cc1)c1cn2c3c(cc(CN4CCOCC4)cc3c1=O)OCC2 [Compound 4] | 4.2 | 2.1 | > 50 | 28.4 | 0.6 | – | IC50 (HSV-1 KOS; [8]): 3.2 µM; IC50 (HSV-1 F): 2.1 µM; IC50 (HSV-1 DJL): 2.2 µM; IC50 (HSV-1 Patton): 4.3 µM; IC50 (HSV-2 MS; [9]): 2.5 µM; IC50 (HSV-2 35D): 3.2 µM; IC50 (HSV-2 186): 2.3 µM |
| Cc1nc2c(cc1C#CCO)c(=O)c(C(=O)NCc1ccc(Cl)cc1)cn2C [Compound 15] | > 50 | 5.9 | > 50 | > 50 | 0.7 | 7.7 | – |
| O=c1[nH]c(=O)n([C@H]2C[C@H](O)[C@@H](CO)O2)cc1I [Iudr, Iododeoxyuridine, reference compound] | 1.1 | 5 | 0.8 | 6.1 | – | – | – |
| Cn1nc(C(=O)NCc2ccc(Cl)cc2)c(=O)c2cc(C#CCO)ccc21 [Compound 14] | 28.4 | 1.6 | > 50 | > 50 | 0.9 | 18.4 | – |
| Nc1ccn([C@@H]2O[C@H](CO)[C@@H](O)[C@@H]2O)c(=O)n1 [AraC, Arabinosylcytidine, reference compound] | 0.2 | 0.2 | – | 0.1 | – | – | – |
| O=C(NCc1ccc(Cl)cc1)c1cnc2ccc(CCCO)cc2c1O [Compound 7] | 6.5 | 8.8 | > 50 | 27.9 | 0.3 | 3.4 | – |
| O=C(NCc1ccc(Cl)cc1)c1cn(N2CCOCC2)c2ccc(CN3CCOCC3)cc2c1=O [Compound 5] | – | – | – | – | – | – | IC50 (HSV-1 KOS; [8]): 3.3 µM; IC50 (HSV-1 F): 2.6 µM; IC50 (HSV-1 DJL): 2.7 µM; IC50 (HSV-1 Patton): 10 µM; IC50 (HSV-2 MS; [9]): 2.5 µM; IC50 (HSV-2 35D): 8.1 µM; IC50 (HSV-2 186): 4.2 µM |
| O=C(NCc1ccc(Cl)cc1)c1cn2c(CO)cc3cc(CN4CCOCC4)cc(c1=O)c32 [Compound 9] | 1.9 | 0.9 | > 50 | 48.7 | < 0.1 | 3.1 | – |
| Cn1cc(C(=O)NCc2ccc(Br)cc2)c(=O)c2cc(CN3CCOCC3)sc21 [Compound 10] | 15.8 | 29.2 | > 50 | > 50 | 1.1 | > 16 | – |
| Nc1ccn(C[C@@H](CO)OCP(=O)(O)O)c(=O)n1 [Cidofovir, reference compound] | – | – | – | – | – | – | IC50 (HCMV AD169; [10]): 0.3 µM; IC50 (HCMV AD169; [11]): 0.4 µM; IC50 [1, 12]: 0.6 µM; increase in IC50 / change in sensitivity, HCMV AD169-M1 [1]: < 2 fold |
| Nc1nc(O)c2ncn(COC(CO)CO)c2n1 [Ganciclovir, reference compound] | – | – | – | – | – | – | IC50 (HCMV AD169; [10]): 0.9 µM; IC50 (HCMV AD169; [11]): 0.8 µM; IC50 [1, 12]: 1 µM; increase in IC50 / change in sensitivity, HCMV AD169-M1 [1]: < 2 fold |
| Nc1nc2c(ncn2COCCO)c(=O)[nH]1 [ACV, Acyclovir, reference compound] | – | – | – | – | – | – | IC50 (HSV-1 KOS; Human alphaherpesvirus 1, Table 1, plaque reduction, Vero cells, read-out: IC50 (uM), HSV-1 KOS): 3.6 µM; IC50 (HSV-1 KOS; Human alphaherpesvirus 1, Table 5, wild type strain, read-out: Plaque Reduction Assay - IC50 (μM) HSV-1 KOS): 3.9 µM; IC50 (HSV-1 F; Human alphaherpesvirus 1): 1.3 µM; IC50 (HSV-1 DJL; Human alphaherpesvirus 1): 1.8 µM; IC50 (HSV-1 Patton; Human alphaherpesvirus 1): 9.3 µM; IC50 (HSV-2 MS; Human alphaherpesvirus 2, Table 1, plaque reduction, Vero cells, read-out: IC50 (uM), HSV-2 MS): 10 µM; IC50 (HSV-2 MS; Human alphaherpesvirus 2, Table 5, wild type strain, read-out: Plaque Reduction Assay - IC50 (μM) HSV-2 MS): 2.4 µM; IC50 (HSV-2 35D; Human alphaherpesvirus 2): 6 µM; IC50 (HSV-2 186; Human alphaherpesvirus 2): > 10 µM; IC50 (HSV-1 KOS-M1 (V823A); Human alphaherpesvirus 1, read-out: Plaque Reduction Assay - IC50 (μM) HSV-1 KOS-M1): 4.4 µM; IC50 (HSV-2 MS-M1 (V826A); Human alphaherpesvirus 2, read-out: Plaque Reduction Assay - IC50 (μM) HSV-2 MS-M1): 2.8 µM |
| O=C(NCc1ccc(Cl)cc1)c1cnc2c(F)cccc2c1O [Compound 6] | 24.6 | 28.8 | > 50 | > 50 | 5.1 | > 16 | – |
| O=C(O)P(=O)(O)O [PFA, Foscarnet, reference compound] | – | – | – | – | – | – | IC50 (HCMV AD169; [11]): 38 µM; IC50 ([1]; Human betaherpesvirus 5, AD169, read-out: Plaque Reduction Assay - IC50 (μM) HCMV AD169-M1): < 20 µM |
| Cn1cc(C(=S)NCc2ccc(Cl)cc2)c(=O)c2cc(C#CCO)ccc21 [Compound 13] | 5.5 | 5.3 | < 25 | > 50 | 2.7 | > 16 | – |
